“Also recorded” adds a separate entry of the source.
Key:
[1] = target: T1, p2y9 (Homo sapiens, UniProt Q99677); assay: Intracellular calcium increase in four CHO clones stably expressing p2y9 (Fura-2); type: cell-based; conditions: p2y9 clones vs negative control, FIG. 15
T1 construct: expressed in transfected cells
Protocol: Then the investigation with respect to CHO clone has been carried out. Experiment of calcium incorporation was conducted in four independent CHO clones, #01, #09, #15 and #20, stably expressing p2y9. […] As a negative control, CHO cells which acquired neomycin resistance by transfected only with pCXN2.1 vector were used.
Four types of CHO clones, #01, #09, #15 and #20, stably expressing p2y9 were incubated for 24 hours in the medium of Ham's F-12 supplemented with 0.1% BSA in replacement of Ham's F-12 supplemented with 10% fetal bovine serum. The cells were then suspended in HEPES-Tyrode's buffer (140 mM NaCl, 2.7 mM KCl, 1 mM CaCl2, 12 mM NaHCO3, 5.6 mM D-glucose, 0.49 mM MgCl2, 0.37 mM NaH2PO4, and 25 mM HEPES-NaOH (pH 7.4)) containing 3 μM Fura-2 (calcium indicator) and 0.01% Cremophor EL. Cells were incubated at 37° C. for 1 hour for incorporation of Fura-2. Cells were then resuspended in HEPES-Tyrode's buffer in order to achieve a cell density of 1×10^6 cells/ml. The changes in intracellular concentrations with addition of various concentrations of LPAs were monitored by using CAF-100 spectrofluorometer (Jasco, Tokyo, Japan). As a negative control, CHO cells which acquired neomycin resistance by transfected only with pCXN2.1 vector were used.

[2] = test system: ATP receptors endogenously expressed in CHO cells; assay: ATP positive control, intracellular calcium change in CHO clones; type: cell-based; conditions: ATP 1 μM, 10 μM and 100 μM
Protocol: Over 200 lipids (Lipid Library; BIOMOL) and nucleotides were screened using CHO clones of respective receptors by monitoring changes in intracellular calcium concentrations. As positive controls for the screenings, ATP with concentrations of 1 μM, 10 μM and 100 μM were used.
CHO clones of four individual receptors such as GPR34, p2y5, p2y9 and p2y10 were seeded respectively in three 96-well plates at a density of 4×10^4 cells/well. On the following day, cells were loaded with 4 μM of Fluo-3 (calcium indicator) and incubated at 37° C. for 1 hour for incorporation of Fluo-3. Cells were then reacted with individual lipids (1 to 10 μM) contained in the Lipid Library of BIOMOL comprising over 200 kinds of lipid molecules and 17 nucleotides (1 to 100 μM) such as ATP, then time course kinetics of intracellular calcium mobilization was monitored with FLEXstation of Molecular Devices.
This enabled to confirm the relevance of the experiment.

T1 sequence (Q99677 whole entry): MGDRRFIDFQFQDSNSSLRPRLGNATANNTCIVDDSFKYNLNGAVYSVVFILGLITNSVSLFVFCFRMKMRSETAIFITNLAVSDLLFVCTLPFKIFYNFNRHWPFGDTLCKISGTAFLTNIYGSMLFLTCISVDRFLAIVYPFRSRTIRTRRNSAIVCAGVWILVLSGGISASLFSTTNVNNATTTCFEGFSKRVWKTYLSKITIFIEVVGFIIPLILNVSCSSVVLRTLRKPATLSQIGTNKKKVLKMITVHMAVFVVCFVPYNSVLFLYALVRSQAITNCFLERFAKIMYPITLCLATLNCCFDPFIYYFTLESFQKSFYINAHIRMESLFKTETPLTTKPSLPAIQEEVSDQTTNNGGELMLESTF

Compound: thrombin
- increase in intracellular calcium concentration ([1]; thrombin 0.1 NIH units/ml): no significant difference; also recorded: no significant changes

Compound: platelet activating factor [PAF]
- increase in intracellular calcium concentration ([1]; PAF 1 μM): no significant difference; also recorded: no significant changes

Compound: Nc1ncnc2c1ncn2[C@@H]1O[C@H](COP(=O)(O)OP(=O)(O)OP(=O)(O)O)[C@@H](O)[C@H]1O [ATP]
- change in intracellular calcium concentration [2]: remarkable change in intracellular calcium concentration beyond the measurable range; also recorded: changes in calcium concentration beyond the measurable range
- increase in intracellular calcium concentration ([1]; ATP 10 μM): no significant difference; also recorded: no significant changes
